Test results published in PMC7327383, “The affinity and selectivity of α‐adrenoceptor antagonists, antidepressants, and antipsychotics for the human α1A, α1B, and α1D‐adrenoceptors” (Pharmacology Research & Perspectives, 2020).
Where two headings read alike, the source gives them in different places.

Legend:
human α1A-adrenoceptor = target: T1, human α1A-adrenoceptor (Homo sapiens, UniProt P35348); experiment: [3H]prazosin whole-cell competition binding, CHO-α1A cells; settings: for selectivity α1A vs 1D / selectivity α1A vs α1B: ratio, 1 = no selectivity for a subtype over another
T1 construct: CHO cells stably expressing either the full‐length human α1A, α1B, or α1D‐adrenoceptor
T1 sequence (P35348 1-466): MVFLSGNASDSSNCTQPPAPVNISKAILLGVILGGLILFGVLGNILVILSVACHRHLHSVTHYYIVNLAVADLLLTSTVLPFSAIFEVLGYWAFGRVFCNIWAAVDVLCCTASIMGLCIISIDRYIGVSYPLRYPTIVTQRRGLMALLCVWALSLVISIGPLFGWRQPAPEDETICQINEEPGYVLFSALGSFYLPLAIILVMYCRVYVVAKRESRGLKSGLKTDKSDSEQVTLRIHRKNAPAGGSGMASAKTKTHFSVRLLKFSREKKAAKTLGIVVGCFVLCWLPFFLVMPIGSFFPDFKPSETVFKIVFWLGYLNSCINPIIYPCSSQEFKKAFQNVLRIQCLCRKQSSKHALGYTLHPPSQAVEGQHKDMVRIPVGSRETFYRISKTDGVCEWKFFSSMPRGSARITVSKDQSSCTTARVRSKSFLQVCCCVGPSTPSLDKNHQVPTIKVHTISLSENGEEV

human α1B-adrenoceptor = target: T2, human α1B-adrenoceptor (Homo sapiens, UniProt P35368); experiment: [3H]prazosin whole-cell competition binding, CHO-α1B cells; settings: for selectivity α1B vs α1D: ratio, 1 = no selectivity for a subtype over another; for Kd: read-out: Log KD α1B (converted)
T2 construct: CHO cells stably expressing either the full‐length human α1A, α1B, or α1D‐adrenoceptor
T2 sequence (P35368 1-520): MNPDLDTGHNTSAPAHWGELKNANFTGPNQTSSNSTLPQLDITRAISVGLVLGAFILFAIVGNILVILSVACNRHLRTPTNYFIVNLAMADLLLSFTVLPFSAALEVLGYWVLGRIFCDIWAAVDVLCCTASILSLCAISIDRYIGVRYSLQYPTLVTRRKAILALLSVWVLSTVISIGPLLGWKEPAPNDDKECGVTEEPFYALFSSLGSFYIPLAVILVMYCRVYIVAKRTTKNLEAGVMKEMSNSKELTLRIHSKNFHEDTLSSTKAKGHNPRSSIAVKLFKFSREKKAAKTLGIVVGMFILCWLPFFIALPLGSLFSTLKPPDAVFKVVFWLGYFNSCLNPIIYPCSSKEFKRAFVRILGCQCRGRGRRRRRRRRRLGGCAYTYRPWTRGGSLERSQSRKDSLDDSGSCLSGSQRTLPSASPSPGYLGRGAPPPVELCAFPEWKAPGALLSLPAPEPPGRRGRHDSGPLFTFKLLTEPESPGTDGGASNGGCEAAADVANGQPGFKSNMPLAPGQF

[1] = target: T3, full-length human α1D-adrenoceptor (Homo sapiens, UniProt P25100); experiment: [3H]prazosin whole-cell competition binding, CHO-α1D cells
T3 sequence (P25100 1-572): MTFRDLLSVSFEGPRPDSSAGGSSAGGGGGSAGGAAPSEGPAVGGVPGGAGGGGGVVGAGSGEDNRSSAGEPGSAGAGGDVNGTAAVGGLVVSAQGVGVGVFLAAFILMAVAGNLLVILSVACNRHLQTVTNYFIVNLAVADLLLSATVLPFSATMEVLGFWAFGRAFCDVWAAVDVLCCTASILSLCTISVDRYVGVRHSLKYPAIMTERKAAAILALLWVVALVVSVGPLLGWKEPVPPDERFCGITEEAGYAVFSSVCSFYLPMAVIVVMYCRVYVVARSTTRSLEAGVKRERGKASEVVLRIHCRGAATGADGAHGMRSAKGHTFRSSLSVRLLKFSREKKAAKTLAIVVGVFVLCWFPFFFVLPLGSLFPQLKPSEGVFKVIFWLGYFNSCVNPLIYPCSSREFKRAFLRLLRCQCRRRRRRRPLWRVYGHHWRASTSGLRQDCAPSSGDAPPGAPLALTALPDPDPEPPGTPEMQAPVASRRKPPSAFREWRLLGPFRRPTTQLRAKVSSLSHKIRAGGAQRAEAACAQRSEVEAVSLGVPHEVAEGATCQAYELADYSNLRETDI

[2] = ratio of KD values, printed under α1A = higher α1A affinity, 1.0 under vs = none
[3] = single-component inhibition curve, given as log KD (negative), mean ± SE mean
[4] = ratio of KD values, higher α1D affinity (site 1 KD)
[5] = ratio of KD values, higher α1A affinity, 1.0 under vs = none
[6] = single-component inhibition curve, given as log KD (negative), mean ± SE mean, read-out: Log KD α1A (converted)
[7] = Log KD α1D, single-component inhibition curve, given as log KD (negative), mean ± SE mean
[8] = log KD from 3H-prazosin whole cell binding, CHO cells, mean ± s.e.mean

| Structure (SMILES) | Selectivity ratio α1A vs α1B (human α1A-adrenoceptor; [2]) [fold] | selectivity α1B vs α1D (human α1B-adrenoceptor) | Selectivity ratio α1B vs α1D [1, 4] [fold] | Selectivity ratio α1A vs α1D (human α1A-adrenoceptor; [5]) [fold] | Kd (human α1A-adrenoceptor; [6]) [µM] | Kd (human α1B-adrenoceptor; [3]) [µM] | Kd [1, 7] [µM] | selectivity α1A vs 1D (human α1A-adrenoceptor) | selectivity α1A vs α1B (human α1A-adrenoceptor) | also measured |
| --- | --- | --- | --- | --- | --- | --- | --- | --- | --- | --- |
| CCN1CCCC1CNC(=O)c1cc(S(N)(=O)=O)ccc1OC (stereo not shown) [Sulpiride] | >32 | >4.6 | >4.6 | 6.9 | 31.6 |  |  |  | >31 | Kd ([1]; Log KD α1D (apparent), app: top concentration inhibited most but not all specific binding, curve extrapolated): 219 ± 5.38 µM |
| O=C1NCCN1CCN1CCC(c2cn(-c3ccc(F)cc3)c3ccc(Cl)cc23)CC1 [Sertindole] | 9.8 |  |  | 219 | 0.000537 | 0.00525 | 0.117 |  |  | Selectivity ratio α1B vs α1D (human α1B-adrenoceptor; ratio of KD values, higher α1B affinity, 1.0 under vs = none): 22 fold |
| CC(C)(C)NCC(O)COc1cccc2[nH]c(=O)[nH]c12 (stereo not shown) [CGP 12177] |  | >1.6 |  |  |  |  |  | 8.7 | >14 | Kd (human α1A-adrenoceptor; log KD from 3H-prazosin whole cell binding, CHO cells, mean ± s.e.mean, read-out: Log KD α1A (converted)): 7.24 µM; Log IC50 α1B (human α1B-adrenoceptor; log IC50 bound): Log IC50>-4; Kd ([1]; Log KD α1D, log KD from 3H-prazosin whole cell binding, CHO cells, mean ± s.e.mean): 63.1 µM |
| CN(C)CCCN1c2ccccc2CCc2ccccc21 [Imipramine] |  | 1.3 | 1.3 |  | 0.0339 | 1.74 | 1.29 |  |  | Selectivity ratio α1A vs α1B (human α1A-adrenoceptor): 51 fold; Selectivity ratio α1A vs α1D (human α1A-adrenoceptor): 38 fold |
| CN1CC[C@]2(CCN3CCc4c(oc5ccccc45)[C@@H]3C2)N(C)C1=O.Cl [MK-912] |  | 69 |  |  |  |  |  | 3.5 | 20 | Log KD α1A (human α1A-adrenoceptor; [8]): -6.76 ± 0.03; Log KD α1B (human α1B-adrenoceptor; [8]): -5.46 ± 0.05; Log KD α1D site 1 ([1]; two-component inhibition curve, first (high-affinity) component): -7.30 ± 0.16; % site 1 α1D ([1]; two-component inhibition curve, proportion of site 1): 61.2 ± 5.5%; Log KD α1D site 2 ([1]; two-component inhibition curve, second (low-affinity) component): -5.50 ± 0.25 |
| C[C@H](Cc1cc2c(c(C(N)=O)c1)N(CCCO)CC2)NCCOc1ccccc1OCC(F)(F)F [Silodosin] | 1288 | 2.8 | 2.8 | 468 | 0.000245 | 0.316 | 0.115 |  |  | Kd (human α1A-adrenoceptor; subtype not given, ligands with α1A selectivity (Table 1: α1A), read-out: affinity): < 0.00025 µM |

Further lines, with some results ahead:

| Selectivity ratio α1A vs α1B (human α1A-adrenoceptor; [2]) [fold] | selectivity α1B vs α1D (human α1B-adrenoceptor) | Selectivity ratio α1B vs α1D [1, 4] [fold] | Selectivity ratio α1A vs α1D (human α1A-adrenoceptor; [5]) [fold] | Kd (human α1A-adrenoceptor; [6]) [µM] | Kd (human α1B-adrenoceptor; [3]) [µM] | Kd [1, 7] [µM] | Structure (SMILES) | selectivity α1A vs 1D (human α1A-adrenoceptor) | selectivity α1A vs α1B (human α1A-adrenoceptor) | also measured |
| --- | --- | --- | --- | --- | --- | --- | --- | --- | --- | --- |
| 5.8 | 12 | 12 |  |  |  |  | CCS(=O)(=O)N1CCC[C@@H]2CN3CCc4cc(OC)ccc4[C@@H]3C[C@@H]21 [RS79948] | 2.1 |  | Log KD α1A (human α1A-adrenoceptor; [3]): −5.75 ± 0.05; Log KD α1B (human α1B-adrenoceptor; [3]): −4.99 ± 0.05; Selectivity ratio α1A vs α1D [1, 4]: 2.1 fold; Log KD α1D [1, 3]: −6.07 ± 0.11 |
| 51 | 7.4 | 7.4 | 6.9 | 0.0617 | 3.16 | 0.427 | COc1ccccc1N1CCN(CCCNc2cc(=O)n(C)c(=O)n2C)CC1 [Urapidil] |  |  |  |
| 13 | 4.8 | 4.8 | 2.8 | 1.66 | 22.4 | 4.68 | O=C1CCC(=O)N1C[C@H]1CC[C@H]2CN(c3ncccn3)CCN2C1 [Sunepitron] |  |  |  |
